The text below walks through data of patent publication US20220411525A1, “BCMA AS A TARGET FOR T CELL REDIRECTING ANTIBODIES IN B CELL LYMPHOMAS” (Janssen Pharmaceutica NV, priority 2021, published 2022).

One data set has as its system autologous CLL cells. Description: Cytotoxicity assay, CLL derived T cells co-cultured with autologous CLL cells. In kind it is cell-based, human. Particulars: 96 h, 5:1 E:T. How it is done: (§1) It was also assessed whether Teclistamab would induce activation and cytotoxicity of CLL derived T cells. To assess activation and degranulation, full PBMCs of CLL patients were treated with 100 ng/mL Teclistamab or control BsAbs for 96 h with or without presence of γ-secretase inhibition. […] For FIGS. 6A-6, CLL PBMCs were stimulated with 100 ng/mL BCMAxCD3, BCMAxnull, nullxCD3 or anti-CD3/CD28 antibodies. Flow cytometry analysis of (FIG. 6A) CD25 and (FIG. 6B) CD107a were performed after 4 days (n=3-5). For FIG. 6C, T cells from CLL patients were isolated and co-cultured in a 5:1 E:T ratio with their autologous CLL for 96 h in the presence or absence of 100 ng/mL BCMAxCD3 DuoBody and were left untreated (−) or treated with 100 nM γ-secretase inhibitor (+). (n=6) The P value was calculated ordinary one-way ANOVA (FIGS. 6A-6B) or paired t test (FIG. 6C). Data are presented as mean±SD. *P<0.05; **P<0.01; ***P<0.001; ****P<0.0001.
(§2) Cytotoxicity assay. […] Viability of the target cells was assessed using TO-PRO-3 (Invitrogen) and MitoTracker Orange (Invitrogen) using Flow Cytometry. Specific lysis of target cells was calculated as (% target cell death in treated sample—% cell death target cells in medium control)/(100—% cell death target cells in medium control)*100%. […]

The subject of data set [1] is T cells of healthy donor PBMCs. Description: T cell proliferation of healthy donor PBMCs co-cultured with cell lines. To be noted: co-culture of HD T cells with B cell malignancy cell lines, 4 days. The format is cell-based, human. How it is done: (§3) FIGS. 4A-4G provide the results of the assessment, which are that BCMAxCD3 DuoBody® induces activation, degranulation, cytokine secretion and cytotoxicity by T cells in the presence of B cell malignancy cell lines. PBMCs of healthy donors were left unstimulated or stimulated with 100 ng/mL BCMAxCD3 DuoBody®, BCMAxnull, nullxCD3 or anti-CD3/CD28 antibodies. Cells were left untreated (−) or treated with 100nM γ-secretase inhibitor (+). T cells were co-cultured with cell lines RPMI-8226 (multiple myeloma), JeKo-1 (mantle cell lymphoma), BCWM.1 (Waldenstrom's macroglobulinemia) or CII (chronic lymphocytic leukemia) in a 1:1 E:T ratio. After 48 hours activation by CD25 (FIG. 4A), degranulation (FIG. 4B), secretion of IFNy (FIG. 4D), IL-2 (FIG. 4E), TNFα (FIG. 4F), and cytotoxicity (FIG. 4G) were measured by flow cytometry (n=3-14). 4 days after incubation T cell proliferation was assessed by FACS (FIG. 4C) (n=3-9).
T cell proliferation. PBMCs from HD patients were labelled with CTV and cultured alone or in 1:1 E:T ratio with RPMI-8226, JeKo-1, CII or BCWM1. PBMCs were incubated in the presence of 100 ng/mL BCMAxCD3, BCMAxnull or nullxCD3 or stimulated with CD3 (clone 1XE) and CD28 (clone 15E8) antibodies. 100 nM γ-secretase inhibitor (Ly411575) was added where indicated. After 4 days proliferation was measured by flow cytometry as described above.

Data set [2] deals with B cell malignancy cell lines (RPMI-8226, JeKo-1, BCWM.1, CII). The data set is described as follows: Cytotoxicity assay, cell lines co-cultured with healthy donor PBMCs. In kind it is cell-based. The method, then: (§4) Since the different B cell malignancy cell lines express BCMA to different extents, it was explored whether co-culture of these cell lines with the BCMAxCD3 BsAb Teclistamab in presence of HD PBMCs would lead to activation of T cells. To assess this, 4 cell lines were selected based on previously determined BCMA levels: RPMI-8226 (MM, positive control; high BCMA), BCWM.1 (WM, high BCMA), CII (CLL, intermediate BCMA) and JeKo-1 (MCL, low BCMA). Cell lines and age-matched HD PBMCs were cultured in presence of 100 ng/mL Teclistamab or the control BsAbs (BCMAxnull or nullxCD3) with or without 100 nM γ-secretase inhibitor. As a positive control, anti-CD3/CD28 antibodies were added to the co-cultures to induce TCR stimulation.
as §3, §2

A further data set has as its system CLL derived T cells. Description: Activation and degranulation of CLL derived T cells in CLL PBMCs. In kind it is cell-based, human. Particulars: 96 h. How it is done:
as §1
(§5) Activation, cytokine production and degranulation. PBMCs from HD or CLL patients were incubated in the presence of 100 ng/mL BCMAxCD3, BCMAxnull or nullxCD3 or stimulated with CD3 (clone 1XE) and CD28 (clone 15E8) antibodies for 2 days. Where indicated HD PBMCs were co-cultured in a 1:1 E:T ratio with RPMI-8226, JeKo-1, CII or BCWM1. 100 nM γ-secretase inhibitor (Ly411575) was added where indicated. […]

The next data set deals with primary CLL cells. Description: Cytotoxicity assay, primary CLL cells co-cultured with healthy donor T cells. In kind it is cell-based, human. To be noted: for average lysis of CLL cells: 48 h; for average lysis of CLL cells / average cell death of CLL cells: 10:1 E:T, per T cell donor; for average cell death of CLL cells: 96h. How it is done:
Since primary CLL samples express BCMA at even lower levels compared to JeKo-1 cell lines, the present inventors explored whether this expression level was still high enough to induce effective lysis of CLL cells. To assess this HD T cells were co-cultured for 48-96 h with primary CLL cells in the presence of 100 ng/mL of Teclistamab with or without 100 nM γ-secretase inhibitor.
FIGS. 5A-5C illustrate how healthy donor T cells kill primary CLL cells in presence of BCMAxCD3 DuoBody, which is largely dependent on CD8^+ T cells. Measurement of cytotoxicity after PBMCs of healthy donors were left unstimulated or stimulated with 100 ng/mL BCMAxCD3 DuoBody®, in the absence (−) or presence (+) of 100 nM γ-secretase inhibitor. PBMCs were T cells were co-cultured with primary CLL in a 10:1 E:T ratio for (FIG. 5A) 48 h or (FIG. 5B) 96 h. […] (n=8) The P value was calculated by Wilcoxon test (FIG. 5A), paired t test (FIG. 5B) or repeated measures one-way ANOVA (FIG. 5C). Data are presented as mean±SD. *P<0.05; **P<0.01; ***P<0.001.
Cytotoxicity assay. Cell lines or primary CLL samples were labelled with Cell Trace Violet (CTV, Thermo Fisher Scientific) or carboxyfluorescein diacetate succinimidyl ester (CFSE, ThermoFisher Scientific) according to manufacturer's instructions and co-cultured with healthy donor PBMCs or CLL derived (autologous) T cells in different effector-target (E:T) ratios. Where indicated prior to co-culture CD4 and CD8 T cells were isolated using MACS beads (Miltenyi), according to manufacturer's instructions. Co-cultures were in the presence of 100 ng/mL BCMAxCD3, BCMAxnull or nullxCD3. 100nM γ-secretase inhibitor (Ly411575) was added where indicated. Viability of the target cells was assessed using TO-PRO-3 (Invitrogen) and MitoTracker Orange (Invitrogen) using Flow Cytometry. Specific lysis of target cells was calculated as (% target cell death in treated sample—% cell death target cells in medium control)/(100—% cell death target cells in medium control)*100%. Samples were excluded when cell death in medium controls exceeded 50%.

The test system of data set [3] is T cells of healthy donor PBMCs. The data set is described as follows: Activation, degranulation and cytokine production of healthy donor T cells co-cultured with B cell malignancy cell lines. In kind it is cell-based, human. The method, then:
as §4, §3, §5

Where [4] appears, read: 100 ng/mL plus 100 nM γ-secretase inhibitor.
The mark [5] stands for this setting: 100 ng/mL, no γ-secretase inhibitor.
[6] abbreviates: 100 ng/mL, with 100 nM γ-secretase inhibitor.

“And” between values parts separate entries of the source, which are not always exact repeats. Equal values may be shown once.

In the case of “Teclistamab: BCMAxCD3 bispecific antibody developed with Genmab DuoBody technology, provided by Janssen Pharmaceuticals”, the “lysis of autologous CLL cells upon addition of γ-secretase inhibition” value in the data set with autologous CLL cells (setting [4]) is given as “slightly increased”. Moreover, the “mean lysis of autologous CLL cells” value in the data set on autologous CLL cells (setting [5]) was 40%. The T cell proliferation entry in data set [1] is “resulted in T cell activation, proliferation and cytotoxicity”. Further, in data set [2] (setting [4]), the “cytotoxicity upon addition of γ-secretase inhibitor” value is “did not improve”. The “lysis of JeKo-1 compared to BCWM.1 or CII cell lines” value in data set [2] (100 ng/mL, JeKo-1 (low BCMA)) is listed as “more efficiently lysed”. Moreover, the “cell death of target cells” value in data set [2] (100 ng/mL, co-culture with HD T cells, 1:1 E:T, 48 hours) is “induced cell death of target cells”. In the data set with CLL derived T cells (100 ng/mL plus γ-secretase inhibitor), the “CD25 activation in T cells of CLL patients upon addition of γ-secretase inhibitor” value is “enhanced”. In the data set on CLL derived T cells (100 ng/mL, CLL PBMCs), the “CD25 activation in CD4+ and CD8+ T cells of CLL patients” value is listed as “trend towards increased CD25 activation”. Moreover, in the data set on primary CLL cells (setting [5]), the “average lysis of CLL cells” value was 12.9% and 16.4%; the “average cell death of CLL cells” value was 15.8% and 20%. Further, in the data set with primary CLL cells (setting [6]), the “average lysis of CLL cells” value was 14.9% and 21.6%; the “average cell death of CLL cells” value is 25,8% and 27.4%. Also, in the data set with primary CLL cells (100 ng/mL, 96 h, 5:1 E:T, CD4+ T cells only), the “killing by HD CD4+ T cells” value is on record as “not able to induce killing”. In addition, in the data set with primary CLL cells (100 ng/mL, 96 h, 5:1 E:T, CD8+ T cells), the “lysis by HD CD8+ T cells” value is given as “up to 60%”. Moreover, the “lysis of CLL cells by healthy donor T cells” value with primary CLL cells (summary statement, in presence of teclistamab) is “up to 40%”. The “T cell activation and proliferation upon increasing BCMA levels by γ-secretase inhibition” value in data set [3] (setting [4]) is on record as “not further enhanced”. Further, the “activation marker CD25 on CD4+ and CD8+ T cells” value in data set [3] (100 ng/mL, 2 days co-culture with cell lines, 1:1 E:T) is given as “upregulation of the activation marker CD25”. For the same substance, the “CD25 on T cells, PBMCs cultured without a target cell” value in data set [3] (100 ng/mL, no target cell) is “did not lead to upregulation of CD25”.
